From patent publication US11752125B2, “Anti-neuroinflammatory and protective compounds in Achillea fragrantissima” (THE STATE OF ISRAEL MINISTRY OF AGRICULTURE & RURAL …, priority 2013, dated 2023)

Legend:
NO = NO (nitrite) production by LPS-activated microglial cells (Griess); format: cell-based, rat; details: Rattus norvegicus; 40 μM (highest concentration tested); LPS 4.5 ng/mL, 20 h; read-out: inhibition of NO secretion
Procedure: Cultures of primary rat microglial cells were prepared from cerebral cortices of 1-2 day-old neonatal Wistar rats as described. Microglial cells were seeded at 24-well plastic plates at 1×10^5/well in RPMI-1640 containing 2% FBS, 2 mM glutamine, 100 U/mL penicillin, 100 µg/mL streptomycin, 1 mM sodium pyruvate, and 50 μM β-mercaptoethanol. Cells were cultured for 36 h before treatments. The research was conducted in accordance with the NIH guide for the care and use of laboratory animals, and was approved by the Institutional Animal Care and Use Committee of The Volcani Center, Agricultural Research Organization (IL-135/07, approval date Apr. 11, 2007). All efforts were made to minimize animal suffering, and to reduce the number of animals used.
For NO measurements, 1×10^5 microglial cells/well were plated in a 24-well tissue culture plate. Cells were stimulated with LPS (4.5 ng/mL) and concomitantly treated with achillolide A or a reference drug. NO levels in the culture medium were estimated with Griess reagent.
3. Activate microglial cells with lipopolysaccharide (LPS, 4.5 nanograms/mL);
In FIG. 21 A, microglial cells were treated with different concentrations of achillolide A, dexamethasone or memantine (as reference drugs) and were concomitantly activated by LPS (4.5 ng/mL) for 20 h. Cell conditioned supernatants were collected, and the levels of NO were measured using Griess reaction. Cytotoxicity was measured using the LDH method (FIG. 21B). Values represent the mean±SEM (n=12 for each treatment). ** p<0.01; ***p<0.001 relative to cells that were treated to LPS only.

N2a neuronal cells = test: Aβ25-35-induced ROS elevation in N2a cells; format: cell-based; details: Aβ25-35 25 μM, 20 hr
Procedure: 2. Plate N2a cells (10,000 cells/0.2 ml/well of 96 wells plate) in DMEM (high glucose, 225 ml), Opti-MEM (250 mil) containing 5% Fetal Bovine Serum, 2 mM L-Glutamine, 100 U/ml penicillin and 100 micrograms/mL streptomycin and incubate (37° C., 5% CO2) for 24 hr. 3. Replace the medium with a fresh one containing 20 micromolars 2′7′-dichlorofluorescein diacetate (DCF-DA); 4. Incubate 30 min (37° C., 5% CO2); 5. Wash twice with PBS; 6. Replace with fresh medium; 7. Read fluorescence of “time 0” at 485 nm (Extinction) and 528 nm (Emmision). 8. Incubate the cultured cells for 2 hours with freshly diluted TTF or AcA of the invention; 9. Add freshly diluted Aβ25-35 (25 micromolars); 10. Read fluorescence at 20 hr after the addition of Aβ25-35 (25 micromolars) (Ex: 485 nm and Em: 528 nm). 11. A reduction of 70% of ROS levels are indication for an anti-oxidant activity in this assay.
N2a neuronal cells were treated with Aβ25-35 (25 μM) and TTF. ROS levels were measured 20 hr later. The results are shown in FIG. 11 and are the mean±SEM of two different experiments (n=15).
N2a neuronal cells were treated with Aβ25-35 (25 μM) and achillolide A. Cytotoxicity (FIG. 27A) viability (FIG. 27B) and ROS levels (FIG. 27C) were measured 20 hr later. The results are the mean±SEM of two different experiments (n=16).

CREB = test: Aβ25-35-induced CREB phosphorylation in N2a cells (ELISA); format: cell-based; details: concomitant treatment 30 min
Procedure: 7. Measure the amount of total and phosphorylated CREB in cell lysates of N2a cells, by ELISA using the PathScan total CREB sandwich ELISA kit (Cell Signaling TECHNOLOGY) or the PathScan phosoho-CREB (Ser133) sandwich ELISA kit (Cell Signaling TECHNOLOGY), respectively. 8. Determine the optical density at 450 nm using a microplate reader.
N2a cells were treated concomitantly with Aβ25-35 and TTF for 30 min. Cells were extracted and the levels of phosphorylated (FIG. 15 A) or total (FIG. 15 B) CREB were determined by specific ELISA kits. The results are the mean±SEM of one experiment (n=2).
N2a cells were treated concomitantly with Aβ25-35 and AcA for 30 min. Cells were extracted and the levels of phosphorylated CREB were determined by A specific ELISA kit. The results are the mean±SEM of one experiment (n=2).

Row | SMILES | inhibition at 40 µM (NO) [%] | effect on Aβ25-35-induced ROS elevation (N2a neuronal cells) | effect on Aβ25-35-induced phosphorylation of CREB (CREB)
1 | CC12CC3CC(C)(C1)CC(N)(C3)C2 [memantine, reference compound] | 64 | – | –
2 | C=C1CCC2=C(CO)C(=O)O[C@H]2/C=C(\C)[C@H](OC(C)=O)CC1=O [achillolide A] | 66 | prevents the elevation in ROS levels | down-regulates
3 | COc1cc(-c2oc3cc(OC)c(OC)c(O)c3c(=O)c2O)ccc1O [TTF, 3,5,4′-trihydroxy-6,7,3′-trimethoxyflavone] | – | prevents the elevation in ROS levels | significantly inhibited
